Peptide text beside a SMILES is read from it. * marks the point of attachment. Cbz = O=C(OCc1ccccc1)*
Columns and labels:
[1] = system: Tamoxifen-resistant cells LCC2; assay: CCK-8 cell viability, LCC2; format: cell-based, human; settings: LCC2, Fig. 7h, i
[2] = Serum markers of liver and kidney function in tumor-bearing mice; format: in vivo; settings: therapeutic doses
PARP and Bcl-2 = PARP and Bcl-2 by western blot, LCC2; format: cell-based, human; settings: LCC2, 50 or 100 nM, 48 h
ESR1 mRNA [3] = assay: Real-time PCR of ESR1 mRNA, T47D; format: cell-based, human; settings: Supplementary Fig. 1b
MCF-7 cells = assay: CCK-8 cell viability, MCF-7; format: cell-based, human; settings: MCF-7 and T47D, Supplementary Fig. 1e–g
[4] = system: Tamoxifen-resistant patient-derived organoids (PDOs); assay: Organoid live/dead staining; format: cell-based, human; settings: PDO
[5] = system: ERα transcriptional activity (ERE); assay: ERE-luciferase assay, MCF-7; format: cell-based, human; settings: Fig. 3i, MCF-7 and T47D
ESR1 mRNA [6] = assay: Real-time PCR of ESR1 mRNA, MCF-7; format: cell-based, human; settings: MCF-7, Supplementary Fig. 1a
LCC2 xenografts = assay: Tamoxifen-resistant LCC2 xenografts in nude mice; format: in vivo
ERα = biological target: T1, ERα (Homo sapiens, UniProt P03372); format: cell-based; settings: MCF-7 and T47D, with Bufalin
T1 sequence (P03372 1-595): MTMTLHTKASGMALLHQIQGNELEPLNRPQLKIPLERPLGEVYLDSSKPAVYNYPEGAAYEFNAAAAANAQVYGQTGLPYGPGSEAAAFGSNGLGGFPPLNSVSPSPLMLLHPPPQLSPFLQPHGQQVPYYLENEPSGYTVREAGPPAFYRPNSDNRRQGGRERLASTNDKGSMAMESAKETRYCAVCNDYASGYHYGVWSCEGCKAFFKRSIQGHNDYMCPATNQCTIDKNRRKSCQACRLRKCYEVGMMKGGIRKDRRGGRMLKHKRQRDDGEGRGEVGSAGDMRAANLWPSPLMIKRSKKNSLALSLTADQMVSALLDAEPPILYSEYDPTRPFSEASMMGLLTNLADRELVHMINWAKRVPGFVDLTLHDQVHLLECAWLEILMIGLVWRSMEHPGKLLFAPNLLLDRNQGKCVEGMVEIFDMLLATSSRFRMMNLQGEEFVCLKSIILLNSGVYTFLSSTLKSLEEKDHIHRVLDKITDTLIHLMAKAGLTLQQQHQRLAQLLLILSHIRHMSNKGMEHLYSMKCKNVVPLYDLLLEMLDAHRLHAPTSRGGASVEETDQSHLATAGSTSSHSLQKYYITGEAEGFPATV

SMILES	Anti-cancer effects compared with Fulvestrant [1]	Toxicity by serum liver and kidney markers [2]	Apoptosis markers PARP and Bcl-2 (PARP and Bcl-2)	mRNA of ERα (ESR1 mRNA [3])	Anti-cancer effects compared with Fulvestrant (MCF-7 cells)	Cell death by Calcein-AM/PI staining [4]	Transcriptional activity of ERα (ERE luciferase) [5]	mRNA of ERα (ESR1 mRNA [6])	ERα protein expression in tumors (LCC2 xenografts; IHC and western blot)	Anti-tumor activity compared with Fulvestrant (LCC2 xenografts; LCC2 xenografts)	Ki67 in tumors (IHC) (LCC2 xenografts; LCC2 xenografts)	Tumor volumes and weights (LCC2 xenografts; intraperitoneal injection)	Effect of co-treatment on Bufalin-induced ERα decrease (ERα)
C[C@]12CC[C@H](O)C[C@H]1CC[C@@H]1[C@@H]2CC[C@]2(C)[C@@H](c3ccc(=O)oc3)CC[C@]12O [Bufalin]	better anti-cancer effects than Fulvestrant	no significant signs of drug-induced toxicity	PARP cleavage, and Bcl-2 downregulation	no obvious change	stronger anti-cancer effects than Fulvestrant	extensive cell death	weakened the transcriptional activity of ERα	no obvious change	the protein expression of ERα was decreased	superior anti-tumor activity to Fulvestrant	marked Ki67 suppression	the tumor volumes and weights significantly decreased	–
CC(C)C[C@@H](C=O)NC(=O)[C@H](CC(C)C)NC(=O)[C@H](CC(C)C)NC(=O)OCc1ccccc1 [MG-132] (Cbz-Leu-Leu-Leu-aldehyde)	–	–	–	–	–	–	–	–	–	–	–	–	effectively prevented the Bufalin-induced decrease in ERα protein levels
NS(=O)(=O)OC[C@@H]1C[C@@H](n2ccc3c(N[C@H]4CCc5ccccc54)ncnc32)C[C@@H]1O [MLN4924]	–	–	–	–	–	–	–	–	–	–	–	–	reversed the Bufalin-mediated downregulation of ERα

Reference: article PMC12373995 (Nature Communications, 2025)
